What was measured:
Rho kinase 2 = Rho kinase 2 (Homo sapiens, UniProt O75116); assay: In vitro Rho kinase inhibitory activity assay (ADP-Glo kit, Myelin Basic Protein substrate); assay type: biochemical; conditions: 10 μM ATP, 25° C., read-out: ROCK2 inhibitory activity (Ki, range of activity)
Outline: (§1)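 ADP-Glo luminescence read-out. Enzyme (ROCK1 or ROCK2) + compound 30 min, then 10 μM ATP final, 1 h, 25 °C; 2.5 μM MBP peptide substrate, Tris pH7.5/MgCl2/BSA/DTT buffer, 1% DMSO. IC50 from variable-slope fit (0–100% fixed); Ki via Cheng-Prusoff.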

Rho kinase 1 = Rho kinase 1 (Homo sapiens, UniProt Q13464); assay: as above; assay type: biochemical; conditions: 10 μM ATP, 25° C., read-out: ROCK1 inhibitory activity (Ki, range of activity)
Rho kinase 1, sequence (Q13464 whole entry): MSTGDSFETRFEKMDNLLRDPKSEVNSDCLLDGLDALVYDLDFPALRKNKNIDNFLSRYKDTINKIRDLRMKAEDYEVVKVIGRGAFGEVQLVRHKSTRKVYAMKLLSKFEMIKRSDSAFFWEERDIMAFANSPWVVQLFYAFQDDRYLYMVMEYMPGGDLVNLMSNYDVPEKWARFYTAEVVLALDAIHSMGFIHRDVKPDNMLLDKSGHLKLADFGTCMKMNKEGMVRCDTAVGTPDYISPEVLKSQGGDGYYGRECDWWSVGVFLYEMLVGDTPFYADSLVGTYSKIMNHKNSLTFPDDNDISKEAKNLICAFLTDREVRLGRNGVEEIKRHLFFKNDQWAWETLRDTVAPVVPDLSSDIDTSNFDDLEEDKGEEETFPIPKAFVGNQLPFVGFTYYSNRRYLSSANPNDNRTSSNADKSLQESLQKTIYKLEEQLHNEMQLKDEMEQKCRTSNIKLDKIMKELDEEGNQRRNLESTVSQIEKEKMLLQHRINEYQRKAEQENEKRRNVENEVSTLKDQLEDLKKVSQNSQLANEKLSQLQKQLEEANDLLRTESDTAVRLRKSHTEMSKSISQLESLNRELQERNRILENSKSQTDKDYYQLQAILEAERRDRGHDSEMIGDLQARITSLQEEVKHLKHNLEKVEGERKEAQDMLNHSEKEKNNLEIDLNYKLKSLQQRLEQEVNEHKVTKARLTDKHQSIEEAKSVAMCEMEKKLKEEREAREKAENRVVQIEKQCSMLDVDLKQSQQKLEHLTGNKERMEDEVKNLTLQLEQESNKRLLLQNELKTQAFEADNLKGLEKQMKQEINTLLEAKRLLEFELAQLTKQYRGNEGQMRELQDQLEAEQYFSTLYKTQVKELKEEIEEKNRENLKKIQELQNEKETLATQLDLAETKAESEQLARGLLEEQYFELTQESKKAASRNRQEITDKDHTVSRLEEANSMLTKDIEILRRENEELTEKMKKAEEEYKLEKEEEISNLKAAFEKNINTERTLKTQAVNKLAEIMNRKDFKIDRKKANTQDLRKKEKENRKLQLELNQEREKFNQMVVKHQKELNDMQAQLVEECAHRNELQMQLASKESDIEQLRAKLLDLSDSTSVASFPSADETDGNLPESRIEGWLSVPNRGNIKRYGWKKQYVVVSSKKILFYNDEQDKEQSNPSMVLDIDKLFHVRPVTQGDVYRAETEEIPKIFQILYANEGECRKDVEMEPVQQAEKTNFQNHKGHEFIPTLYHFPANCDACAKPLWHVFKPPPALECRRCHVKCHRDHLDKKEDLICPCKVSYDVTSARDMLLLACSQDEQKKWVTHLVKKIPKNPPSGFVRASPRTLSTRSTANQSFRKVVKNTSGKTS
Outline: as §1

Rho kinase 2, sequence (O75116 whole entry): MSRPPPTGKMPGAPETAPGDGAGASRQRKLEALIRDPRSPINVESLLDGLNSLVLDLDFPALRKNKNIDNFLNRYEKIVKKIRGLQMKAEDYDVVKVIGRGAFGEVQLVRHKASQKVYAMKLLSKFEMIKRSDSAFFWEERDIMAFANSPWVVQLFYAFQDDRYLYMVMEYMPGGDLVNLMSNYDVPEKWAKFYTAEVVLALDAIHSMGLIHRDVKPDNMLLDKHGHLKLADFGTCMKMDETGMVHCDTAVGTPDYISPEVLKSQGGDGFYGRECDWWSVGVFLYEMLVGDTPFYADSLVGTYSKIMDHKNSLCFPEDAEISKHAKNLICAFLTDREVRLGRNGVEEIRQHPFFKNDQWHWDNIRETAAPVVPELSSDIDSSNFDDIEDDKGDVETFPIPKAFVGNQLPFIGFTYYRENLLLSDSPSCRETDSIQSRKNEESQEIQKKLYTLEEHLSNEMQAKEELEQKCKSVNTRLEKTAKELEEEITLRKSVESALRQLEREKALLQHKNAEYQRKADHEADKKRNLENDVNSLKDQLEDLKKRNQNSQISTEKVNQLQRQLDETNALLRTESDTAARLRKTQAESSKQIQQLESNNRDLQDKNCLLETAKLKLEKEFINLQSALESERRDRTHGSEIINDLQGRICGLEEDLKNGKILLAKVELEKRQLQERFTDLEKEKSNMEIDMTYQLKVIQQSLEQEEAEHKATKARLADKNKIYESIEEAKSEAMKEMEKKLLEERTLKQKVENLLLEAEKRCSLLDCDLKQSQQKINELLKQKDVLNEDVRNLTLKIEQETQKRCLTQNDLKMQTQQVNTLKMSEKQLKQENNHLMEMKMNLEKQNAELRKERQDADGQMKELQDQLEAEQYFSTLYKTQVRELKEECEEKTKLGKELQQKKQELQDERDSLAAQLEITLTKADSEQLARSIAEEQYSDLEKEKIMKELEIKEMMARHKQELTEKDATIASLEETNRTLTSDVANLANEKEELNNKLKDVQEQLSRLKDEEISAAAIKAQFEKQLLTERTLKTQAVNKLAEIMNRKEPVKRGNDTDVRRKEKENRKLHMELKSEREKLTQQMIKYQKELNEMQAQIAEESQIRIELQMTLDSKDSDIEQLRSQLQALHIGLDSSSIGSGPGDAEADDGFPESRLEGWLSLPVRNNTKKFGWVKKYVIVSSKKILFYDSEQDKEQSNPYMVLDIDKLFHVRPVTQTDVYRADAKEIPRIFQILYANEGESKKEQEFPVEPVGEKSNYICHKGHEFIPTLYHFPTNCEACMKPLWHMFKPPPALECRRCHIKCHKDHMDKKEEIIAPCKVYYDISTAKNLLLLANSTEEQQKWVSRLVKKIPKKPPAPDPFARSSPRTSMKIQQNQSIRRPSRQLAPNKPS

SMILES | Ki (Rho kinase 2) [nM] | Ki (Rho kinase 1) [nM]
CC1=C(C(=O)Nc2ccc3[nH]ncc3c2)C(c2ccc(F)cc2)n2nc(C(=O)O)cc2N1 (stereo not drawn) [Example 75, 6-((1H-indazol-5-yl)carbamoyl)-7-(4-fluorophenyl)-5-methyl-4,7-dihydropyrazolo[1,5-a]pyrimidine-2-carboxylic acid] | < 50 | < 50
CC1=C(C(=O)Nc2ccc3cnccc3c2)C(c2ccc(C(F)(F)F)c(F)c2)n2nc(C(=O)NCCN3CCN(C)CC3)cc2N1 (stereo not drawn) [Example 81, 7-(3-fluoro-4-(trifluoromethyl)phenyl)-N6-(isoquinolin-6-yl)-5-methyl-N2-(2-(4-methylpiperazin-1-yl)ethyl)-4,7-dihydropyrazolo[1,5-a]pyrimidine-2,6-dicarboxamide] | < 50 | < 50
CC1=C(C(=O)Nc2ccc3cnccc3c2)C(c2ccc(C(F)(F)F)c(F)c2)n2nc(C(=O)NCCN3CCOCC3)cc2N1 (stereo not drawn) [Example 82, 7-(3-fluoro-4-(trifluoromethyl)phenyl)-N6-(isoquinolin-6-yl)-5-methyl-N2-(2-morpholinoethyl)-4,7-dihydropyrazolo[1,5-a]pyrimidine-2,6-dicarboxamide] | < 50 | < 50
CC1=C(C(=O)Nc2ccc3cnccc3c2)C(c2ccc(C(F)(F)F)c(F)c2)n2nc(C(=O)N(C)CCN3CCOCC3)cc2N1 (stereo not drawn) [Example 83, 7-(3-fluoro-4-(trifluoromethyl)phenyl)-N6-(isoquinolin-6-yl)-N2,5-dimethyl-N2-(2-morpholinoethyl)-4,7-dihydropyrazolo[1,5-a]pyrimidine-2,6-dicarboxamide] | < 50 | < 50
CC1=C(C(=O)Nc2ccc3cnccc3c2)C(c2ccc(C(F)(F)F)c(F)c2)n2nc(C(=O)NCC3CCN(C)CC3)cc2N1 (stereo not drawn) [Example 84, 7-(3-fluoro-4-(trifluoromethyl)phenyl)-N6-(isoquinolin-6-yl)-5-methyl-N2-((1-methylpiperidin-4-yl)methyl)-4,7-dihydropyrazolo[1,5-a]pyrimidine-2,6-dicarboxamide] | < 50 | < 50
CC1=C(C(=O)Nc2ccc3cnccc3c2)C(c2ccc(C(F)(F)F)c(F)c2)n2nc(C(=O)N3C[C@H]4CN(C)C[C@H]4C3)cc2N1 (stereo partly drawn) [Example 86, 7-(3-fluoro-4-(trifluoromethyl)phenyl)-N-(isoquinolin-6-yl)-5-methyl-2-(5-methyloctahydropyrrolo[3,4-c]pyrrole-2-carbonyl)-4,7-dihydropyrazolo[1,5-a]pyrimidine-6-carboxamide] | < 50 | < 50
CC1=C(C(=O)Nc2ccc3cnccc3c2)C(c2ccc(C(F)(F)F)c(F)c2)n2nc(C(=O)N(C)C3CCN(C)CC3)cc2N1 (stereo not drawn) [Example 88, 7-(3-fluoro-4-(trifluoromethyl)phenyl)-N6-(isoquinolin-6-yl)-N2,5-dimethyl-N2-(1-methylpiperidin-4-yl)-4,7-dihydropyrazolo[1,5-a]pyrimidine-2,6-dicarboxamide] | < 50 | < 50
CC1=C(C(=O)Nc2ccc3cnccc3c2)C(c2ccc(C(F)(F)F)c(F)c2)n2nc(C(=O)N(C)CCCN(C)C)cc2N1 (stereo not drawn) [Example 89, N2-(3-(dimethylamino)propyl)-7-(3-fluoro-4-(trifluoromethyl)phenyl)-N6-(isoquinolin-6-yl)-N2,5-dimethyl-4,7-dihydropyrazolo[1,5-a]pyrimidine-2,6-dicarboxamide] | < 50 | < 50
CC1=C(C(=O)Nc2ccc3[nH]ncc3c2)C(c2ccc(F)cc2)n2nc(C(=O)N3CCOCC3)cc2N1 (stereo not drawn) [Example 90, 7-(4-fluorophenyl)-N-(1H-indazol-5-yl)-5-methyl-2-(morpholine-4-carbonyl)-4,7-dihydropyrazolo[1,5-a]pyrimidine-6-carboxamide] | < 50 | < 50

Next, values leading:

Ki (Rho kinase 2) [nM] | Ki (Rho kinase 1) [nM] | SMILES
< 50 | < 50 | CC1=C(C(=O)Nc2ccc3[nH]ncc3c2)C(c2ccc(C(F)(F)F)cc2)n2nc(C(=O)N3CCN(C)CC3)cc2N1 (stereo not drawn) [Example 76, N-(1H-indazol-5-yl)-5-methyl-2-(4-methylpiperazine-1-carbonyl)-7-(4-(trifluoromethyl)phenyl)-4,7-dihydropyrazolo[1,5-a]pyrimidine-6-carboxamide]
< 50 | < 50 | CC1=C(C(=O)Nc2ccc3cnccc3c2)C(c2ccc(C(F)(F)F)c(F)c2)n2nc(C(=O)NCCN3CCCCC3)cc2N1 (stereo not drawn) [Example 77, 7-(3-fluoro-4-(trifluoromethyl)phenyl)-N6-(isoquinolin-6-yl)-5-methyl-N2-(2-(piperidin-1-yl)ethyl)-4,7-dihydropyrazolo[1,5-a]pyrimidine-2,6-dicarboxamide]
< 50 | < 50 | CC1=C(C(=O)Nc2ccc3cnccc3c2)C(c2ccc(C(F)(F)F)c(F)c2)n2nc(C(=O)NCCN(C)C)cc2N1 (stereo not drawn) [Example 79, N2-(2-(dimethylamino)ethyl)-7-(3-fluoro-4-(trifluoromethyl)phenyl)-N6-(isoquinolin-6-yl)-5-methyl-4,7-dihydropyrazolo[1,5-a]pyrimidine-2,6-dicarboxamide]
< 50 | < 50 | CC1=C(C(=O)Nc2ccc3cnccc3c2)C(c2ccc(C(F)(F)F)c(F)c2)n2nc(C(=O)N(C)CCN(C)C)cc2N1 (stereo not drawn) [Example 80, N2-(2-(dimethylamino)ethyl)-7-(3-fluoro-4-(trifluoromethyl)phenyl)-N6-(isoquinolin-6-yl)-N2,5-dimethyl-4,7-dihydropyrazolo[1,5-a]pyrimidine-2,6-dicarboxamide]
< 50 | < 50 | CC1=C(C(=O)Nc2ccc3cnccc3c2)C(c2ccc(C(F)(F)F)c(F)c2)n2nc(C(=O)N(C)CC3CCN(C)CC3)cc2N1 (stereo not drawn) [Example 85, 7-(3-fluoro-4-(trifluoromethyl)phenyl)-N6-(isoquinolin-6-yl)-N2,5-dimethyl-N2-((1-methylpiperidin-4-yl)methyl)-4,7-dihydropyrazolo[1,5-a]pyrimidine-2,6-dicarboxamide]
< 50 | < 50 | CC1=C(C(=O)Nc2ccc3cnccc3c2)C(c2ccc(C(F)(F)F)c(F)c2)n2nc(C(=O)N3CCC(N(C)C)CC3)cc2N1 (stereo not drawn) [Example 87, 2-(4-(dimethylamino)piperidine-1-carbonyl)-7-(3-fluoro-4-(trifluoromethyl)phenyl)-N-(isoquinolin-6-yl)-5-methyl-4,7-dihydropyrazolo[1,5-a]pyrimidine-6-carboxamide]
> 500 | > 500 | CC1=C(C(=O)Nc2ccc3[nH]ncc3c2)C(c2ccc(F)cc2)n2ncc(C(=O)N3CCN(C)CC3)c2N1 (stereo not drawn) [Example 91, 7-(4-fluorophenyl)-N-(1H-indazol-5-yl)-5-methyl-3-(4-methylpiperazine-1-carbonyl)-4,7-dihydropyrazolo[1,5-a]pyrimidine-6-carboxamide]
> 500 | > 500 | CC1=C(C(=O)Nc2ccc3[nH]ncc3c2)C(c2ccc(F)cc2)n2ncc(C(=O)NCCN(C)C)c2N1 (stereo not drawn) [Example 92, N3-(2-(dimethylamino)ethyl)-7-(4-fluorophenyl)-N6-(1H-indazol-5-yl)-5-methyl-4,7-dihydropyrazolo[1,5-a]pyrimidine-3,6-dicarboxamide]
< 50 | < 50 | CC1=C(C(=O)Nc2ccc3[nH]ncc3c2)C(c2ccc(F)cc2)n2nc(C(=O)N3CCNCC3)cc2N1 (stereo not drawn) [Example 93, 7-(4-fluorophenyl)-N-(1H-indazol-5-yl)-5-methyl-2-(piperazine-1-carbonyl)-4,7-dihydropyrazolo[1,5-a]pyrimidine-6-carboxamide]
